Experiments:
[1] = tested on: G361 melanoma cells; test: FGFR inhibitor abrogation of factor-mediated resistance (GFP, rScore); type: cell-based, human; conditions: vemurafenib 2 μM; EMAPII or AIMP1 10 ng/ml; FGFR inhibitor 0.5 μM
Protocol: PLX4720—BRAFi, 2 μM; PD184352—MEKi, 1 μM, EMAPII—50 ng/ml. P-value of the difference between GFP(drug)/GFP(no-treatment) and GFP(drug+EMAPII)/GFP(no-treatment), at day 7, was calculated by two-sided t-test. ** p<0.01, *** p<0.001. Average rScore (+/−SE) was calculated from at least four different experiments. […] A total of 69 experiments are shown. […] The effect of FGF2 (10 ng/ml), EMAPII (10 ng/ml) or AIMP1 (10 ng/ml) on G361 μmelanoma cells treated with vemurafenib (2 μM) was measured with or without the FGFR inhibitor PD17307 (0.5 μM). Data represent an average of 4 to 8 experiments. P-value was calculated by two-sided t-test. *** p<0.001. Error bars represent standard error. […] 18 putative AIMP1 receptors were knocked down by shRNAs (on average 6.8 shRNAs/gene) in the G361 cell line. shRNAs toward luciferase served as a negative control. The effect of AIMP1 (50 ng/ml) on the sensitivity to PLX4720 (2 μM) was tested in all knockdown clones and normalized to no-shRNA control. Results represent the average of 3-8 experiments. Error bars represent standard error. P-values were calculated by two-sided t-test relative to luciferase. * p<0.05, Q-value=0.1. […] The average of 4 experiments is presented. Error bars represent standard error. P-value was calculated by two-sided t-test. *** p<0.001.

[2] = tested on: H1975 xenografts; test: EVOC viability; type: cell-based, human; conditions: added to afatinib 3-4 μM
Protocol: Vehicle—DMSO, FGFRi—AZD4547 2-4 μM, INSRi—linsitinib 2 μM, METi—crizotinib 2-4 μM, EGFRi—afatinib 3-4 μM. Each black dot in a given treatment condition represents a different tumor. P-values were calculated by two-sided t-test. ** P<0.01, * P<0.05. Error bars represent standard error. […] Viability percentage is given per treatment combination. Scale bar represents 50 μm. […] Error bars represent standard error. […] EGFRi—gefitinib 1.6 μM, FGFRi—AZD4547 0.2 μM. The percentage of viable cancer cells was morphologically assessed on H&E stained sections by a pathologist as the ratio between viable cancer cell area and total cancer area (viable cancer cells plus necrotic cancer cells). […] Viability score was calculated based on the entire field of view. […]
Immunohistochemistry of EVOC tissues: To assess response therapy, 4 μm FFPE tissue slices were stained with H&E, or with specific antibodies: anti-pERK (Cell Signaling, #4370) followed by HRP conjugated secondary antibody (anti-Rabbit HRP, ZUC032, ZytoChem) and DAB staining (DAB substrate kit, DAB057, ZytoChem). […] All slides were scanned using the Pannoramic SCAN II (3[sequence]) and analyzed by a pathologist. The percentage of viable cancer cells was morphologically assessed on H&E stained sections by a pathologist as the ratio between viable cancer cell area and total cancer area (viable cancer cells plus necrotic cancer cells).

[3] = tested on: HCC4006 xenografts; test: EVOC viability; type: cell-based, human; conditions: crizotinib 8 μM added to erlotinib 4 μM
Protocol: Vehicle—DMSO, METi-crizotinib 8 μM, EGFRi—erlotinib 4 μM. Each black dot in a given treatment condition represents a different tumor. P-values were calculated by one-sided t-test. * P<0.05. Error bars represent standard error. […] Viability percentage is presented per treatment. Scale bar represents 50 μm.
Freshly resected tumors were cut to 250 μm slices (Compresstome, VF-300) in cold Williams-E medium (Sigma, W1878). Slices were placed on the surface of titanium meshes which were pre-incubated in DMEM/F-12 (HAM) (01-170-1A, BI) supplemented with 10% FCS, 100 units/ml Penicillin and Streptomycin, 2 μmM Glutamine, […], and 2.5 μg/ml Amphotericin B (sigma, A2942), at 37° C. and 80% oxygen/5% CO2. […]
Immunohistochemistry of EVOC tissues: To assess response therapy, 4 μm FFPE tissue slices were stained with H&E, or with specific antibodies: anti-pERK (Cell Signaling, #4370) followed by HRP conjugated secondary antibody (anti-Rabbit HRP, ZUC032, ZytoChem) and DAB staining (DAB substrate kit, DAB057, ZytoChem). […] All slides were scanned using the Pannoramic SCAN II (3[…]) and analyzed by a pathologist. The percentage of viable cancer cells was morphologically assessed on H&E stained sections by a pathologist as the ratio between viable cancer cell area and total cancer area (viable cancer cells plus necrotic cancer cells).

[4] = tested on: human NSCLC tumor biopsy; test: EVOC of NSCLC patient biopsies, viability; type: cell-based; conditions: treatment-naïve patient; in combination with osimertinib 4 μM
Text: Error bars represent standard error. […] Scale bar represents 50 μm. […] Error bars represent standard error. […] Scale bar represents 50 μm.
Scale bar represents 50 μm. […] Scale bar represents 50 μm. […] Scale bar represents 50 μm.

[5] = tested on: SK-MEL-5 BRAF (V600E) melanoma cells; test: Co-culture of stroma (WI-38 or HS-5) and cancer cells; type: cell-based, human; conditions: co-culture with WI-38; inhibitor added to vemurafenib
Protocol: SK-MEL-5 BRAF (V600E) melanoma cells were co-cultured with the lung-derived stromal cell line WI-38 or with the bone marrow-derived stromal cell line HS-5 with or without vemurafenib (4 μM). […] Vehicle—DMSO, EGFRi—gefitinib (0.1 μM), EGFRi/HER2i—lapatinib (10 nM), METi—crizotinib (0.1 μM), FGFRi—AZD4547 (50 nM), NFkB/TNFRi—CAPE (10 μM), TGFBRi-LY2109761 (0.5 μM), gp130i—SC144 (1 nM). […] Error bars represent standard error. […] Error bars represent standard error. […] Human BRAF (V600E) melanoma cell lines UACC62 or G361 were used to generate xenograft tumor models in various tissues of nude mice. When tumors reached a volume of 500-700 μmm^3, they were resected, sliced, and cultured ex-vivo in the presence of different drug combinations or DMSO control. Following 4 days of drug treatment, slices were fixed, embedded in paraffin blocks, and subjected to immunohistochemistry, using anti-pERK antibody, or to immuno-fluorescence, using anti-pFGFR1 antibody. BRAFi (vemurafenib, 4 μM), FGFRi (AZD4547, 2 μM). Scale bar represents 50 μm.
Four hours later, the melanoma BRAF (V600E) mutated cell line SK-MEL-5 was seeded on top of the stromal cells at a concentration of 1700 cells per well, or seeded without stroma. […] Concentrations of the inhibitors were based on dose curves with SK-MEL-5. For each inhibitor of potential mechanism of resistance, the maximal concentration with minimal effect (toxicity) on cell growth was selected (Cmax).
To compare rScore value of stroma-mediated resistance with or without a given inhibitor, the rScore values of each inhibitor in the presence of stroma, was calculated. As a reduction in rScore may stem from mere toxicity of the inhibitor, rather than the abrogation of the stroma mediated resistance, each inhibitor rScore was penalized by its toxicity.
rScoreinhibitor=rScoreinhibitor+(rScorestroma−rScoreinhibitor)*tOxicitY(Cmax)inhibitor

CCN(CC)CCCCNc1ncc2cc(-c3cc(OC)cc(OC)c3)c(NC(=O)NC(C)(C)C)nc2n1 [PD17307]
abrogation of EMAPII/AIMP1-mediated resistance [1]: abrogates EMAPII/AIMP1-mediated resistance

C[C@@H](Oc1cc(-c2cnn(C3CCNCC3)c2)cnc1N)c1c(Cl)ccc(F)c1Cl [crizotinib]
cell viability [2]: significantly reduced cell viability
innate resistance to EGFRi [3]: reduced innate resistance to the EGFRi erlotinib
cancer cell viability [4]: synergistic killing effect
abrogation of stroma-mediated resistance to vemurafenib [5]: abrogated the resistance effect of WI-38
